The target of one data set is T1, FASN (Sus scrofa, UniProt A5YV76).
T1 construct: from tissue; host or cells: lactating porcine mammary gland extract
The experiment in a line: FLECS screen, elution of fluorescein labeled proteins from Cibacron blue resin. As to conditions: SDS-PAGE and mass spectrometry. Type of data set: binding, porcine. The source says: To specifically identify inhibitors of FASN targeting its nucleotide binding pockets Cibacron blue Sepharose was utilized. This medium has been used previously to purify NAD and NADP binding proteins from crude tissues extracts (Miyaguchi et al., 2011; Muratsubaki et al., 1994). FASN enriched extract from lactating pig mammary gland was bound to the resin and labeled with cysteine reactive fluorescein. […] One hundred and fifty-five of the molecules selectively eluted FASN from the resin, and 20 potential lead compounds were progressed according to their FASN selectivity (assessed with SDS-PAGE, silver staining and mass spectrometry). These twenty compounds were reduced to 13 based on the absence of any obvious chemical liabilities. Next, the molecules were tested for their ability to inhibit FASN activity in a HepG2 cell based assay that measured the incorporation of ^3H glucose into lipids (FIG. 1B and FIG. 9).
Porcine mammary glands were collected from lactating pigs as previously described (Hughes et al., 2012). Tissues were homogenized in lysis buffer A (100 mM sodium fluoride, 5 mM EDTA, 1 mM DTT and 5% glycerol made in 10 mM sodium phosphate buffer pH 7.5) in a ratio of 3 ml of buffer per each gram of tissue. […] Fluorescence in each well was measured at Ex/Em: 485/535 nm. […]

The test system of the next data set is MCF10A cells. The experiment in a line: Proliferation assay (Hoechst DNA content), non-tumorigenic cell line. The class given is cell-based. As for the experimental part: (§1) MCF10A (5,000 cells/well), MCF7 (7,500 cells/well), MDA-MB-468 (5,000 cells/well), BT474 (7,500 cells/well), and SKBR3 (5,000 cells/well) were seeded in 96 well plates with 10% FBS 4 g/L glucose DMEM media except for MCF10A which was DMEM/F12 media. After 24 hours, cells were treated with different concentration of HS-106 or C75. Every 24 hours for five days, media from one of the plates was removed and plate was frozen at −80° C. After collecting all the time points, to each well 100 μl ddH2O was add and the plates were frozen again. Then 100 μI of Hoechst 33258 solution made in TNE buffer (1 μl from Hoechst stock (1 mg/ml in 1:4 DMSO:H20) in 1 ml of TNE (which contains 10 mM Tris, 2M NaCl and 1 mM Na2EDTA) and fluorescence was measured at Ex/Em: 355/460.

Data set [1] deals with MCF7, MDA-MB-468, BT474 and SKBR3 cells. The experiment in a line: Proliferation assay (Hoechst DNA content), aggressive breast cancer cell lines. The class given is cell-based. The following applies: MCF7, MDA-MB-468, BT474, SKBR3. The procedure:
as §1

The subject of the next data set is HIV-1. Nature of the data set: HIV/TZM-bl assay, extracellular p24 ELISA. Type of data set: cell-based. The procedure: HS-106 or C75 were dissolved in DMSO to achieve 10 mM stock concentration. The stock solution of each drug was serially diluted 3-fold with DMSO and 2 μL of each dilution was added to each well to achieve final concentration range from 10 μM to 4.6 nM fixing final [DMSO] at 1%. HIVNL4.3 was added to 3×10^4 TZM-bl cells at 10 ng/ml p24 equivalents in the presence of 15 μg/mL DEAE dextran. HIV-infected cells were incubated at 37° C. in 5% CO2 for 24 hours, washed with PBS, fresh media was added, and cell were incubated for another 24 hours. Supernatants were collected and stored at −80° C. until P24 ELISA assay. HIV-1 replication was assessed by quantitative p24 ELISA. Nevirapine (positive control) was obtained from the AIDS Reagent Repository and was used at […].
(In an ELISA, binding on a coated surface is turned into a signal by an enzyme label.)

T1 sequence (A5YV76 entry or part of it): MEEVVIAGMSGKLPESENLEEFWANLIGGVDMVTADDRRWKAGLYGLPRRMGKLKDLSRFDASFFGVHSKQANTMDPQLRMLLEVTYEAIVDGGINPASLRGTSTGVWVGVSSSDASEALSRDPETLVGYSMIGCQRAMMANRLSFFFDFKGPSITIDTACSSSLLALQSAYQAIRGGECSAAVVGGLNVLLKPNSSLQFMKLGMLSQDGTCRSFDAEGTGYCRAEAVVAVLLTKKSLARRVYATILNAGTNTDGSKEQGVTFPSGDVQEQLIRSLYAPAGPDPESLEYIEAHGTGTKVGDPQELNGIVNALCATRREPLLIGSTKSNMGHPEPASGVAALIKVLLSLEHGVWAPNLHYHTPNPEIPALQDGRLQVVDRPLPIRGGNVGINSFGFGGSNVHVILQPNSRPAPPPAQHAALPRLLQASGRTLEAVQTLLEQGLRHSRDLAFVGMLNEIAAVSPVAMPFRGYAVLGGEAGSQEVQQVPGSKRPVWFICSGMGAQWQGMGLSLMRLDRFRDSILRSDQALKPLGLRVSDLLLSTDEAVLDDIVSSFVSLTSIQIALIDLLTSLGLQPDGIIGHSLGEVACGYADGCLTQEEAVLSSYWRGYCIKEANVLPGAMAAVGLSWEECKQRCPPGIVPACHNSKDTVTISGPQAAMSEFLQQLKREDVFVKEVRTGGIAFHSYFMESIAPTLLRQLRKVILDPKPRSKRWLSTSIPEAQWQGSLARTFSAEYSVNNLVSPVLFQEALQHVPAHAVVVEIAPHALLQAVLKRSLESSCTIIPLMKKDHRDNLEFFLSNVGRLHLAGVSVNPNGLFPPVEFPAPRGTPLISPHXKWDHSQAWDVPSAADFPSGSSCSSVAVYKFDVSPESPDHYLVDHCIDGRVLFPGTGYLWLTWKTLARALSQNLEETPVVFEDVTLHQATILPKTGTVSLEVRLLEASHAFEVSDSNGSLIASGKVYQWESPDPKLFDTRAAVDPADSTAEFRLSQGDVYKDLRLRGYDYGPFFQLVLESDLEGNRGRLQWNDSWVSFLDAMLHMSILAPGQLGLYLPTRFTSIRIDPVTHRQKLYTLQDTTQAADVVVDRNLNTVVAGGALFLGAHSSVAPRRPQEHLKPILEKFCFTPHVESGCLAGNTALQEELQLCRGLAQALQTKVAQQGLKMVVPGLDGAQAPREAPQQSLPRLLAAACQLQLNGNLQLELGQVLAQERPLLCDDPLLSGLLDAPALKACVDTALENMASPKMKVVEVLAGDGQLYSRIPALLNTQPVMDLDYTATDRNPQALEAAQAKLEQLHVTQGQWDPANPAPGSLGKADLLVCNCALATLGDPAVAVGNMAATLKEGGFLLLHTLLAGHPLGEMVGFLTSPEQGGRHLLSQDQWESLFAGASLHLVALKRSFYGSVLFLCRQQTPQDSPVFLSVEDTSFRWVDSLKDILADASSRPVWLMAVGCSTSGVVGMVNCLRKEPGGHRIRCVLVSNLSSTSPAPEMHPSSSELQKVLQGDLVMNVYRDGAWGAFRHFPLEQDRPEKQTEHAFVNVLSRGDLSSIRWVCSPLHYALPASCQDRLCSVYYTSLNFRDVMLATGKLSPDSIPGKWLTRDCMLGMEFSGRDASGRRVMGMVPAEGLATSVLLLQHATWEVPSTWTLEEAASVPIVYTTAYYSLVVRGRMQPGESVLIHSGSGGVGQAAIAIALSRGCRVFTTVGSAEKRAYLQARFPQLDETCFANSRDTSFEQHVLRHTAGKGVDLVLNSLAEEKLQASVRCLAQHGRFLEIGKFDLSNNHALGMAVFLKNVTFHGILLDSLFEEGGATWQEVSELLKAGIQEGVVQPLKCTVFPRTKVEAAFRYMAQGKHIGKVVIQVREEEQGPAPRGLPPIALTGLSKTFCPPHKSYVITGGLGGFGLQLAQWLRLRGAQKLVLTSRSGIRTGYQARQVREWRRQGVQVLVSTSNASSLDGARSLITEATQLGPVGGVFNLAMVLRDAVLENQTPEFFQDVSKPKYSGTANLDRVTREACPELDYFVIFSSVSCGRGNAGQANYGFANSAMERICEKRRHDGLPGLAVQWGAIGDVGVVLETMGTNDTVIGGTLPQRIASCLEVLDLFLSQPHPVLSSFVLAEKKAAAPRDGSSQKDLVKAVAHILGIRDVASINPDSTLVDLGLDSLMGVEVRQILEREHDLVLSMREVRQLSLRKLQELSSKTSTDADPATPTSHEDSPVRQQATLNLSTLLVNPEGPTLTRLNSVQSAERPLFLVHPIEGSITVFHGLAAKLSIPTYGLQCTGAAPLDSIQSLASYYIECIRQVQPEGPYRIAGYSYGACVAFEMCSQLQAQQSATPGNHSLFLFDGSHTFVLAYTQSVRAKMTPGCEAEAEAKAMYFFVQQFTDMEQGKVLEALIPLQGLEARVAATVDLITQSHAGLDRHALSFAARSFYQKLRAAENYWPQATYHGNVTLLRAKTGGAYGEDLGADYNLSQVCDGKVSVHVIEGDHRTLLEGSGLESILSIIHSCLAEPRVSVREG

For `Cc1sc2ncnc(NC3CCN(Cc4ccccc4)C3)c2c1C` (racemic) [HS-106, N-(1-benzylpyrrolidin-3-yI)-5,6-dimethylthieno[2,3-d]pyrimidin-4-amine], the “elution of FASN from Cibacron blue resin (hit strength / selectivity)” value at FASN is given as “selectively elutes FASN”. In addition, the inhibition of proliferation entry in the data set with MCF10A cells is given as “lower activity”; in data set [1], “inhibited the proliferation of aggressive cell lines with similar potency to C75”. Besides, in the data set with HIV-1 (Human immunodeficiency virus 1, TZM-bl cells, 48 hours post infection, read-out: EC50, HIV-1 p24 production), the EC50 (in general, the midpoint of the concentration-response curve) was 213 nM. In addition, in the data set with HIV-1 (TZM-bl model), the “antiviral index (TC50/EC50)” value was 47.

These data come from patent publication US11679111B2, “Fatty acid synthase inhibitors” (priority 2016, dated 2023).
